Test results published in paper PMC13210772, “Dual FLT3/MAPK14 Proteolysis-Targeting Chimera (PROTAC) Induces Potent Acute Myeloid Leukemia Cell Death” (Pharmaceuticals, 2026).

Target: MAPK14 (Homo sapiens, UniProt Q16539)
Experiment: Global proteomics in MOLT-4 cells
Type: cell-based
Set-up: global protein expression profiles of MOLT-4 cells treated with 50 nM MA191 for 5 h; endogenous in cells; host or cells: MOLT-4
Conditions: 50 nM, 5 h
Description: Proteome analyses can uncover unexpected targets of PROTACs. Since AML cells with FLT3-ITD are massively damaged by MA191, we applied it to MOLT-4 cells and analyzed them by proteomics.
MOLT4 cells were lysed using a buffer (50 mM NaCl, 8 M urea, 50 mM EPPS, pH 8.5, with phosphatase and protease inhibitors) and homogenized by bead beating (3 × 30 s at 2400 strokes/min). Protein concentration was determined using the Bradford assay. Fifty micrograms of protein per sample were reduced, alkylated, and precipitated using methanol/chloroform. The dried protein pellet was resuspended in 4 M urea/50 mM HEPES (pH 7.4) and diluted to 1 M urea with 200 mM EPPS (pH 8).
Proteins were digested with LysC and trypsin (1:50, enzyme:protein) for 12 h at 37 °C. Samples were acidified to pH 2–3 with formic acid and desalted using C18 solid-phase extraction. […]
diaPASEF raw data were analyzed using DIA-NN 1.8 in library-free mode, enabling peptide/protein identification, FDR control, protein assembly, and quantification through in silico digestion and deep learning-based predictions. […] Precursor quantification used Robust LC with RT-based cross-run normalization.
Proteins with low total abundance (<2000 × number of treatments) were excluded. […] Significant differences versus control were assessed using two-sided moderated t-tests via the limma package in R framework (R Development Core Team, 2014). […]

Chain of MAPK14 (Q16539 whole entry): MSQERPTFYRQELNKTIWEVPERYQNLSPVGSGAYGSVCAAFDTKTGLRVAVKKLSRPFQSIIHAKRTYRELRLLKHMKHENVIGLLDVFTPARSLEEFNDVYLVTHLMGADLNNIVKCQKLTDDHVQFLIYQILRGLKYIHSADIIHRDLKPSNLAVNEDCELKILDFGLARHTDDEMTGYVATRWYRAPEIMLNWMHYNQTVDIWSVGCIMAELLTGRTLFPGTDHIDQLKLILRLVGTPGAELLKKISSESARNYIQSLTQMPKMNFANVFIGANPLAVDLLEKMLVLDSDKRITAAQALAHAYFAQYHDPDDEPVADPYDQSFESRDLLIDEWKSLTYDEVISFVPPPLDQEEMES

- MAPK14 protein level, proteome analysis: striking downregulation of MAPK14
SMILES: Cc1ncsc1-c1ccc([C@H](C)NC(=O)[C@@H]2C[C@@H](O)CN2C(=O)[C@@H](NC(=O)[C@H]2CC[C@H](C(=O)N3CCN(CCNC(=O)c4cc(Oc5ccc(NC(=O)Nc6cc(C(C)(C)C)on6)cc5)ccn4)CC3)CC2)C(C)(C)C)cc1 [MA191, 4-(4-(3-(5-(tert-Butyl)isoxazol-3-yl)ureido)phenoxy)-N-(2-(4-(trans-4-(((S)-1-((2S,4R)-4-hydroxy-2-(((S)-1-(4-(4-methylthiazol-5-yl)phenyl)ethyl)carbamoyl)pyrrolidin-1-yl)-3,3-dimethyl-1-oxobutan-2-yl)carbamoyl)cyclohexanecarbonyl)piperazin-1-yl)ethyl)picolinamide]
